According to article PMC11467430 (Scientific Reports, 2024):

Tests used:
rabbit lung ACE = target: T1, rabbit lung ACE (Oryctolagus cuniculus, UniProt P12822); test: ACE inhibitory assay; type: biochemical; conditions: IC50 against ACE, positive control; performed in this study
T1 sequence (P12822 34-1310): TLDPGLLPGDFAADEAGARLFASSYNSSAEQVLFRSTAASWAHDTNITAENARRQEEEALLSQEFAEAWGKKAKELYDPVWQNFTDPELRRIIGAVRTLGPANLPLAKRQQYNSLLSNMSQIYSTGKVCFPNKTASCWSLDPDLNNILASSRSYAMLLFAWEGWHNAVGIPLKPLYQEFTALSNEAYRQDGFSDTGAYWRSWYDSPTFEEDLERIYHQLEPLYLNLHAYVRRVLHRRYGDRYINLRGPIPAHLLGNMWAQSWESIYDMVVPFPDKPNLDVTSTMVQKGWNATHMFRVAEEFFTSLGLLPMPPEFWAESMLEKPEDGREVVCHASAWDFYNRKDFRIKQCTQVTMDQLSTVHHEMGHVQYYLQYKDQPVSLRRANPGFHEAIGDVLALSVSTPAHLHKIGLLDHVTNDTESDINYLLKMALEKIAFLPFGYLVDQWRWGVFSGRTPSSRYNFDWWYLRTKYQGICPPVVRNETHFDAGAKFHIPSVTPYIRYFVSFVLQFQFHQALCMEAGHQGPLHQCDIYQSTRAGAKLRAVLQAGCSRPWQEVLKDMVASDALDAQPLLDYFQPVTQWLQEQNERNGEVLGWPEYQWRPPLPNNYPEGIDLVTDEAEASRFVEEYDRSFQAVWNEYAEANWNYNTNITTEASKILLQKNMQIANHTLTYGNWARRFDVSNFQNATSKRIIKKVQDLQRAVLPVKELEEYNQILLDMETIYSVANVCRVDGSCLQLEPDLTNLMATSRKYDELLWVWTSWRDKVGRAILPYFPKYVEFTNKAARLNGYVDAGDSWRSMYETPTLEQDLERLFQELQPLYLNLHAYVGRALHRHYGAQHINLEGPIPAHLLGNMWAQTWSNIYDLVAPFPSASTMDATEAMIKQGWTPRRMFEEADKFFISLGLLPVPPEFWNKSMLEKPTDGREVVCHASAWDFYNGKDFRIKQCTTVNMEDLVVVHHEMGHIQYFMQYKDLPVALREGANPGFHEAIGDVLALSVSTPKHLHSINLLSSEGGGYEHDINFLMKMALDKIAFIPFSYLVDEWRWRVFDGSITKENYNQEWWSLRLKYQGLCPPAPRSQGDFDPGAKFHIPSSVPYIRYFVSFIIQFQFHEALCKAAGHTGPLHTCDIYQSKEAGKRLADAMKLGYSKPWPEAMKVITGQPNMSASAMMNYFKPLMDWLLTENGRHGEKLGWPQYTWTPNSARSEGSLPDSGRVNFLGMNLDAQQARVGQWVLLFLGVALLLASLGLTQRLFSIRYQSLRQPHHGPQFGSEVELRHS

Candida rugosa lipase = conditions: read-out: IC50 against lipase; positive control; ref Chupeerach et al., 2022[35]; cited from earlier work

| SMILES | IC50 (rabbit lung ACE) | IC50 (Candida rugosa lipase) |
| --- | --- | --- |
| NCCCC[C@H](N[C@@H](CCc1ccccc1)C(=O)O)C(=O)N1CCC[C@H]1C(=O)O [Lisinopril, lisinopril] | 0.00179 µM |  |
| CCCCCCCCCCC[C@@H](C[C@@H]1OC(=O)[C@H]1CCCCCC)OC(=O)[C@H](CC(C)C)NC=O [Orlistat, orlistat] |  | 7.94 µM |
